Measurements from patent US7582778B2, “Podophyllotoxin” (Universitatsklinikum Charite der Humboldt-Universitat zu, priority 2001, dated 2009).
Where two headings read alike, the source gives them in different places.

Assays:
[1] = test system: CHO Chinese hamster ovary; assay: XTT cytotoxicity assay, CHO; format: cell-based
Experimental: (§4) Cytotoxicity assay: Cytotoxicity was determined by the XTT tetrazolium/formazan assay as previously described (Scudiero D A, Shoemaker R H, Paull K D, et al. Evaluation of a soluble tetrazolium/formazan assay for cell growth and drug sensitivity in culture using human and other tumor cell lines. Cancer Res. 1988; 48:4827-4833.). Briefly, cells were seeded in 96 flat bottom well plates at a density of 10^4/well in 100 μl media and exposed to drug concentrations ranging from 10^−4 to 10^−12 M. At the indicated time points (6-72 hr), cell viability was assessed by adding 50 μl XTT-reagent (1 mg/ml in serum free RPMI) activated with 0.2% v/v PMS (1.53 mg/ml in PBS) incubated at 37° C. for 4 h. Plates were analyzed in a Thermomax (Molecular Devices) micro plate reader at 450 nm. OD values were plotted as a function of drug concentration and the curves were integrated using the softmax software to obtain the IC50 concentration values.

[2] = test system: Hamms human colon carcinoma cells; assay: XTT cytotoxicity assay, Hamms; format: cell-based
Experimental: as §4

Molt-3 parental cells = assay: Cell cycle analysis (propidium iodide, FACS), Molt-3; format: cell-based, human; settings: Molt-3 cells, 0.5 μM, up to 72 h
Experimental: (§1) Cells were harvested at indicated time points (n=3), fixed, stained with propidium iodide and analyzed by FACS as described in Materials and Methods. Per cent cells in pre G1 (apoptosic cells) were calculated from DNA histograms.
(§2) Cell cycle analysis: Distinct phases of the cell cycle were determined in a standard assay using propidium iodide. […] At indicated time points, cells were harvested and fixed in 4.5 ml ethanol (75%, −20° C.) for at least 12 h (4° C.). Cells were washed in PBS (pH 7.4) and resuspended in 250 μl PBS containing RNAse (0.3 mg/ml) and propidium iodide (50 μg/ml) and incubated in the dark (30 min, RT). The DNA histograms defining distinct phases of the cell cycle were subsequently determined in duplicates by FACS analysis and average results were expressed as per cent.

[3] = for maximum tolerated dose: defined by a decrease in body weight <20%
Experimental: The body weight was determined for each animal over time and calculated as per cent of total weight observed on day 0. An event as indicated by Kaplan Maier plots is defined by loss of body weight greater than 20%.
Body weights and survival were monitored over time.

Molt-3 T-cell leukemia = assay: XTT cytotoxicity assay, Molt-3; settings: for cytotoxic effects at early incubation: Molt-3, up to 12 h of incubation
Experimental: (§3) The cytotoxic effect of ProVP-16 I and II was evaluated against a panel of cell lines by triplicate determinations of IC50 concentrations for both prodrugs against each cell line (A). […] Bars represent mean values ±SD.
At the time points indicated, cell viability was determined in triplicate by the XTT assay as described in Materials and Methods. […] Results were plotted as a semilogarithmic function of drug concentration.

[4] = test system: porcine liver carboxyl ester hydrolase
[5] = for kobs: PBS buffer
Experimental: ProVP-16 I was incubated in THF/2% HCl and samples were periodically analyzed by HPLC at the indicated time points (A). Hydrolytic activation of ProVP-16 II was determined in phosphate buffered saline (PBS) a t the pH levels indicated (B). ProVP-16 I (3 mM) was incubated in PBS solutions and samples were periodically analyzed by HPLC. The percent conversion was calculated from areas under the curve determined by peak integration.

Water solubility = format: physicochemical; settings: compared with ProVP-16 I
[6] = test system: NXS2 murine neuroblastoma; assay: XTT cytotoxicity assay, NXS2; format: cell-based
Experimental: as §3

[7] = human serum, pH 7.3, 37° C.
MOVP-3 primary tumors = assay: Anti-tumor effect in a multidrug resistant T-cell leukemia xenograft model; format: in vivo, SCID mice; settings: for anti-tumor response / transient average weight loss: 15 mg/kg i.p.
Experimental: The anti-tumor effect of ProVP-16 II therapy was determined in a multidrug resistant xenograft model (B,C). SCID mice (n=7) were injected s.c. with 5×10^6 MOVP-3 cells and primary tumors of 250 mm^3 average size were established 55 days after inoculation. […] Tumor growth was monitored by microcaliper measurements and tumor size was calculated as described in Materials and Methods (B). […] The body weight of treated animals was determined over time and calculated as per cent of body weight on day 57 (C).
Anti-tumor effect in a T-cell leukemia xenograft model: Primary tumors were induced by injection of 5×10^6 MOVP 3 cells in 100 μl PBS (pH 7.4) into the skin of the left lateral flank of each SCID mouse. Established primary tumors were palpable 55 days after injection. […] Each mouse received a total of 7 injections on days 55,57,59,69,71,87,90 after tumor cell inoculation. Primary tumor size was determined over time by micro caliper measurements and volumes were calculated according to ½×with^2×length. Body weight was determined on a standard digital scale.

[8] = test system: multidrug resistant MOVP-3 cells; assay: XTT cytotoxicity assay, multidrug resistant MOVP-3 subline; format: cell-based, human; settings: for IC50: MOVP-3 cells; for cross resistance of MOVP-3 cells: from IC50 values MOVP-3 vs Molt-3
Experimental: MDR-1 gene expression was determined by RT-PCR analysis on total RNA isolated from MOVP-3 and Molt-3 cells, respectively (6A). Expression of GAPDH was used as a control for the integrity of the cDNA. […] (6C) Cross-resistance of MOVP-3 cells against MDR-1 drugs (doxorubicin, melphalan, vinblastine and paclitaxel) was calculated from IC50 values (n=3) as described in 6B).
Cells: Tumor cell lines were grown in RPMI, 10% FCS (Nalm-6, Reh, Molt-3, Jurkat, HL-60, K562, HeLa, CEM, A2780, SW480) or DMEM, 10% FCS (NXS2, SK-N-SH, HT-29) in the presence of 100 IU/ml penicillin/streptomycin (P/S) and propagated under standard tissue culture conditions (5% CO2, 37° C.). All cell lines were obtained from ATCC, Rockville, Md. except NXS2 which was previously described (Lode H N, Xiang R, Varki N M, Dolman C S, Gillies S D, Reisfeld R A. Targeted interleukin-2 therapy for spontaneous neuroblastoma metastases to bone marrow. Journal of the National Cancer Institute. 1997; 89:1586-1594.) and VCR100, ADR5000 and A2780 which were kindly provided by James Beck, Greifswald, Germany (Beck J, Handgretinger R, Dopfer R, Klingebiel T, Niethammer D, Gekeler V. Expression of mdrl, mrp, topoisomerase II alpha/beta, and cyclin A in primary or relapsed states of acute lymphoblastic leukaemias. Br J Haematol. 1995; 89:356-363; Beck J F, Bohnet B, Brugger D, et al. Expression analysis of protein kinase C isozymes and multidrug resistance associated genes in ovarian cancer cells. Anticancer Res. 1998; 18:701-705.).

Molt-3/MDR-1 cells = settings: stable transfection with pMDR-IRESpuro
Experimental: Stable transfection of MDR-1: The MDR-1 cDNA was kindly provided in a pUC based plasmid by C. Baum, University of Hamburg. For mammalian expression, the MDR-1 cDNA was cloned into the bicistronic eukaryotic expression plasmid pIRESpuro using NotI and BamHI restriction sites. pMDR-IRESpuro was transfected into Molt-3 cells by electroporation (960 μF, 250V). Stable transfectants were selected with 300 ng/ml puromycin.
OD values were plotted as a function of drug concentration and the curves were integrated using the softmax software to obtain the IC50 concentration values.

MOVP-3 cells = assay: Cell cycle analysis (propidium iodide, FACS), MOVP-3; format: cell-based, human; settings: 0.5 μM, up to 72 h
Experimental: as §1, §2

SW480 colon carcinoma = settings: SW480, vs VP-16
Experimental: as §3

[9] = Conversion of ProVP-16 I to ProVP-16 II under acid conditions (HPLC); format: physicochemical; settings: acid conditions (THF, 2N HCL)
Experimental: ProVP-16 I was incubated in THF/2% HCl and samples were periodically analyzed by HPLC at the indicated time points (A). […] ProVP-16 I (3 mM) was incubated in PBS solutions and samples were periodically analyzed by HPLC. The percent conversion was calculated from areas under the curve determined by peak integration.

MDR-1 p-glycoprotein = MDR-1 p-glycoprotein (Homo sapiens, UniProt P08183); settings: MOVP-3 cells; for effect on the decrease in FL-1 signal (JC-1 efflux): coincubation with 3×10^−4 M
Chain of MDR-1 p-glycoprotein (P08183 whole entry): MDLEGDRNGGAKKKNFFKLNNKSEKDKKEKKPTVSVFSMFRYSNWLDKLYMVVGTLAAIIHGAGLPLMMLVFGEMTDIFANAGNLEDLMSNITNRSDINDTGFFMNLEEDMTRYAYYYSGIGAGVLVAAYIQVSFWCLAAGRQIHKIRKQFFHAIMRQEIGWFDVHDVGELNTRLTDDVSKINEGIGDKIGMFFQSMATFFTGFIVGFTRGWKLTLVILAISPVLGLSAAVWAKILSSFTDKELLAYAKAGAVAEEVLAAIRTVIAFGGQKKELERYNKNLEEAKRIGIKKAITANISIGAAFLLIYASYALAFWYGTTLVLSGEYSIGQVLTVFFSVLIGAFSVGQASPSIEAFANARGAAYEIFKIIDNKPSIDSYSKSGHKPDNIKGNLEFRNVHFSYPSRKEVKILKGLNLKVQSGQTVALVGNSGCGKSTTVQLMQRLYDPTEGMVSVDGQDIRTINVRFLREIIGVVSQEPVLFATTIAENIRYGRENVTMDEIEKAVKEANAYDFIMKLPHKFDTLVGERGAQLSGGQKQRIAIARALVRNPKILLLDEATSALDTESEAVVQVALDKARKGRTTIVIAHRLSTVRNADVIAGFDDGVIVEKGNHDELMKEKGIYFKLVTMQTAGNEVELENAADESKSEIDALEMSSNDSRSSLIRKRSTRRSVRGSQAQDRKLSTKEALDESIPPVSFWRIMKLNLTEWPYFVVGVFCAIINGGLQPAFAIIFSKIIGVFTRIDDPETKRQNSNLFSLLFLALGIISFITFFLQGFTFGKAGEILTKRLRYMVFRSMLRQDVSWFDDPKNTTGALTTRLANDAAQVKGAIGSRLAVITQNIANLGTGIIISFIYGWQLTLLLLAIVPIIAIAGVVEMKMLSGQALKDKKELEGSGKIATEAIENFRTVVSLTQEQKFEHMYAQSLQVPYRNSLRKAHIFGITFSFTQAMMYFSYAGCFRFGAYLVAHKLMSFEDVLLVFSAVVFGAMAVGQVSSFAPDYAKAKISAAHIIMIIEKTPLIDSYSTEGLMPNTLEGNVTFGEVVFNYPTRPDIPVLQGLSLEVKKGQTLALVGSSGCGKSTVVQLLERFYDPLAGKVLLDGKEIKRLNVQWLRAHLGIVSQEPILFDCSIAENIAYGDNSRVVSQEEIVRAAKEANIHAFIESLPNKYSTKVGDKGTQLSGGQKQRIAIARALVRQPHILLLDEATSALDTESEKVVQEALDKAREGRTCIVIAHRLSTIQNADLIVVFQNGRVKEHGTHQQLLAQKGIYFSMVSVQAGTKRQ
Experimental: Samples incubated with 2 μM cyclosporin A were used as positive controls (data not shown). Cell fluorescence was recorded using a FAC Sort flow cytometer (Becton Dickinson) and JC-1 signals were detected on the FL1-channel (530 nm filter) for analysis of the dye monomer.

[10] = Molt-3 cells, resistance experiment (FIG. 4B)
[11] = porcine liver carboxyl ester hydrolase, pH 7.3, 37° C.
[12] = Molt-3, time course, 48-72 h after incubation

In the case of `COc1cc(C2c3cc4c(cc3C(OC3OC5COC(C)OC5C(O)C3O)C3COC(=O)C23)OCO4)cc(OC)c1OC(=O)OCC(O)CO` (centres unmarked) [ProVP-16 II], the “response to proetoposides compared with etoposide” value (“response … compared with etoposide” below) [1] is reported as “responded equally well”, the “response … compared with etoposide” value [2] is reported as “responded equally well” and the “induction of apoptosis (pre-G1 peak)” value (Molt-3 parental cells) is reported as “Induction of apoptosis was also demonstrated”. For the same molecule, the survival / tolerability ([3]; 20 mg/kg i.p.) was “well tolerated with no death”, the survival / tolerability ([3]; 60 mg/kg i.p.) was “well tolerated with no death” and the maximum tolerated dose [3] was 60 mg/kg. The “decrease of systemic toxicity by the prodrug design, factor” value ([3]; mouse, in vivo) was no less than 3, the “increase in the maximum tolerated dose over the parental compound” value ([3]; vs VP-16) was “greater than 3 fold” and the “cytotoxic effects at early incubation” value (Molt-3 T-cell leukemia) was “absence of cytotoxic effects”. For the same molecule, the IC50 (Molt-3 T-cell leukemia; [10]) was 20 nM, the kobs ([4]; pH 7.3) was 1.348 ± 0.081 10^−3-min^−1 and the t1/2 [4, 11] was 514.1 min. For the same molecule, the kobs ([5]; pH 5.0-7.3, 37° C.) was “no conversion”, the kobs ([5]; pH 8.0, 37° C.) was 3.201 ± 0.428 10^−3-min^−1 and the kobs ([5]; pH 8.8, 37° C.) was 7.142 ± 0.351 10^−3-min^−1. For the same molecule, the kobs ([5]; pH 10.5, 37° C.) was 100.01 ± 12.72 10^−3-min^−1, the conversion rate ([5]; pH 7.4) was less than 5% and the water solubility (Water solubility) was “higher water solubility”. The “response … compared with etoposide” value [6] was “responded equally well”, the t1/2 ([7]; listed as ProPV-16 II) was 56.1 min and the t1/2 ([7]; listed as Prodrug II) was 56.07 min. For the same molecule, the anti-tumor response (MOVP-3 primary tumors) was “dramatic reduction in primary tumor growth”, the “transient average weight loss” value (MOVP-3 primary tumors) was “no measurable weight loss” and the “time the regression was stable” value (MOVP-3 primary tumors; 45 mg/kg i.p.) was “over 2 months”. The transient weight loss (MOVP-3 primary tumors; 45 mg/kg i.p.) was 6%, the “animals with regression of established primary tumors” value (MOVP-3 primary tumors; 45 mg/kg i.p., 10 days after initiation of treatment) was 7/7 and the “resistance of MOVP-3 cells (IC50 MOVP-3÷IC50 Molt-3)” value [8] was “no significant difference”. The IC50 [8] was 20 nM, the “sensitivity / resistance of Molt-3/MDR-1 cells” value (“sensitivity / resistance” below) (Molt-3/MDR-1 cells) was “remained fully sensitive” and the “induction of apoptosis (pre-G1 peak)” value (MOVP-3 cells) was “very effective in inducing a steady increase in the pre-G1 peak”. The “IC50 fold lower than parent compound” value (SW480 colon carcinoma) was 1000 fold.
With `COc1cc(C2c3cc4c(cc3C(OC3OC5COC(C)OC5C(O)C3O)C3COC(=O)C23)OCO4)cc(OC)c1OC(=O)OCC1COC(C)(C)O1` (centres unmarked) [ProVP-16 I] the “degradation of the glycoside moiety” value [9] was “about 10%”, the “time for conversion to ProVP-16 II” value [9] was no more than 2 h and the “response … compared with etoposide” value [1] was “responded equally well”. The “response … compared with etoposide” value [2] was “responded equally well”, the “induction of apoptosis (pre-G1 peak)” value (Molt-3 parental cells) was “Induction of apoptosis was also demonstrated” and the IC50 (Molt-3 T-cell leukemia; [12]) was 10 nM. For the same molecule, the “onset of cytotoxic activity” value (Molt-3 T-cell leukemia; Molt-3, time of incubation) was greater than 24 h, the “cytotoxic effects at early incubation” value (Molt-3 T-cell leukemia) was “absence of cytotoxic effects” and the IC50 (Molt-3 T-cell leukemia; [10]) was 20 nM. The “effect on the decrease in FL-1 signal (JC-1 efflux)” value (MDR-1 p-glycoprotein) was “abrogated”, the “lowest concentration inhibiting MDR-1 mediated efflux” value (MDR-1 p-glycoprotein; data not shown) was 10 µM and the kobs [4, 11] was 48.89 ± 3.62 10^−3-min^−1. The t1/2 [4, 11] was 14.2 min, the t1/2 ([4]; porcine liver carboxyl ester hydrolase, pH 7.3, 37° C., listed as Prodrug I) was 14.17 min and the “conversion in PBS” value ([5]; PBS (pH 7.4, 37° C.)) was “no measurable conversion”. For the same molecule, the kobs ([5]; pH 5.0-10.0, 37° C.) was “no conversion”, the kobs ([5]; pH 11.8, 37° C.) was 8.333 ± 0.50 10^−3-min^−1 and the “stability under basic buffer conditions” value ([5]; basic buffer conditions (pH <10.0)) was “inert”. The “response … compared with etoposide” value [6] was “responded equally well”, the kobs [7] was 0.923 ± 0.046 10^−3-min^−1 and the t1/2 [7] was 750.8 min. The IC50 [8] was 20 nM, the “resistance of MOVP-3 cells (IC50 MOVP-3÷IC50 Molt-3)” value ([8]; MOVP-3 vs Molt-3) was “no significant difference” and the “sensitivity / resistance” value (Molt-3/MDR-1 cells) was “remained fully sensitive”. The “induction of apoptosis (pre-G1 peak)” value (MOVP-3 cells) was “very effective in inducing a steady increase in the pre-G1 peak” and the “IC50 fold lower than parent compound” value (SW480 colon carcinoma) was 1000 fold.
In the case of `COc1cc([C@@H]2c3cc4c(cc3[C@@H](O[C@@H]3O[C@@H]5CO[C@@H](C)O[C@H]5[C@H](O)[C@H]3O)[C@H]3COC(=O)[C@H]23)OCO4)cc(OC)c1O` [VP-16, etoposide, reference compound], the “induction of apoptosis (pre-G1 peak)” value (Molt-3 parental cells) is reported as “induce apoptosis in Molt-3 cells to a similar extent as ProVP-16 I and II”, the maximum tolerated dose [3] is reported as 20 mg/kg and the “mice with a weight loss >20%” value ([3]; mouse, in vivo) is reported as 5/6. For the same molecule, the IC50 (Molt-3 T-cell leukemia; [12]) was 65 nM, the IC50 (Molt-3 T-cell leukemia; [10]) was 20 nM and the “effect on the decrease in FL-1 signal (JC-1 efflux)” value (MDR-1 p-glycoprotein) was “ineffective in modulating MDR-1 function”. The anti-tumor response (MOVP-3 primary tumors) was “no anti-tumor response”, the “transient average weight loss” value (MOVP-3 primary tumors) was 20% and the IC50 [8] was 2000 nM. For the same molecule, the resistance in vitro ([8]; MOVP-3 model with stably amplified MDR-1) was 100 ×, the “cross resistance of MOVP-3 cells” value [8] was “cross resistance” and the “sensitivity / resistance” value (Molt-3/MDR-1 cells) was “resistance”. For the same molecule, the “induction of apoptosis (pre-G1 peak)” value (MOVP-3 cells) was “ineffective to induce apoptosis”.
With `COc1cccc2c1C(=O)c1c(O)c3c(c(O)c1C2=O)C[C@@](O)(C(=O)CO)C[C@@H]3O[C@H]1C[C@H](N)[C@H](O)[C@H](C)O1` [doxorubicin] the “cross resistance of MOVP-3 cells” value [8] was “cross resistance” and the “sensitivity / resistance” value (Molt-3/MDR-1 cells) was “resistance”.
With `N[C@@H](Cc1ccc(N(CCCl)CCCl)cc1)C(=O)O` [melphalan] the “cross resistance of MOVP-3 cells” value [8] was “statistically significant”.
With `CC(=O)O[C@H]1C(=O)[C@@]2(C)[C@H]([C@H](OC(=O)c3ccccc3)[C@]3(O)C[C@H](OC(=O)[C@H](O)[C@@H](NC(=O)c4ccccc4)c4ccccc4)C(C)=C1C3(C)C)[C@]1(OC(C)=O)CO[C@@H]1C[C@@H]2O` [paclitaxel] the “cross resistance of MOVP-3 cells” value [8] was “cross resistance” and the “sensitivity / resistance” value (Molt-3/MDR-1 cells) was “resistance”.
With `CC[C@]1(O)C[C@@H]2CN(CCc3c([nH]c4ccccc34)[C@@](C(=O)OC)(c3cc4c(cc3OC)N(C)[C@H]3[C@@](O)(C(=O)OC)[C@H](OC(C)=O)[C@]5(CC)C=CCN6CC[C@]43[C@@H]65)C2)C1` [vinblastine] the “cross resistance of MOVP-3 cells” value [8] was “cross resistance” and the “sensitivity / resistance” value (Molt-3/MDR-1 cells) was “resistance”.
